From patent publication US7062219B2, “Protein fragment complementation assays for high-throughput and high-content screening” (Odyssey Thera Inc., priority 1997, dated 2006) come the findings set out here.

Entries after “also recorded” stand apart in the source; their conditions may differ.

In one test the test system is p53/p53 interaction. Briefly: high-content IFP PCA for p53/p53, nuclear mean fluorescence. In kind it is cell-based, human. To be noted: Trichostatin A 0.5 micromolar; for effect on p53/p53 interaction (nuclear mean fluorescence) in the presence of CPT: 500 nM CPT 16 hours, MS-275 10 micromolar, HA 14-1 2 micromolar; for effect on p53/p53 interaction in both assays (absence and presence of CPT): unstimulated and 500 nM CPT-stimulated, LY294002 25 micromolar, SB 203580 25 micromolar, Geldanamycin 2.5 micromolar. The source says: Open reading frames of full-length human p53 were fused in-frame to the 5′-end of IFP[1] and the 3′-end of IFP[2] to generate the following constructs in a pcDNA3.1 (Invitrogen) backbone: p53-IFP[1] and IFP[2]-p53. The final p53-IFP[1] construct contained a Zeocin selectable marker, while the IFP[2]-p53 construct contained a hygromycin selectable marker. All fusions were through a flexible linker encoding a 10-amino acid peptide (GlyGlyGlyGlySer)2, also referred to throughout as (GGGGS)2 (SEQ ID No.1). DNAs from recombinant constructs were isolated on a Beckman FX robotic workstation (Beckman Coulter, Fullerton, Calif.) using Qiagen Turbo BioRobot Prep kits or manually using Qiagen Midi Prep kits. Isolated DNAs were quantitated and then normalized to a concentration of 50 ng/microliter.
Approximately 24 hours prior to transfection cells were seeded into 96 well poly-D-Lysine coated plates (Greiner) using a Multidrop 384 peristaltic pump system (Thermo Electron Corp., Waltham, Mass.) at a density of 7,500 cells per well. A total of 100 ng of DNA (p53–IFP[1] and IFP[2]-p53) was co-transfected using Fugene 6 (Roche) according to the manufacturer's protocol. Cells expressing the PCA pair in the absence of stimulation were incubated with medium containing drugs for 30 minutes, 90 minutes, and 8 hours. Alternatively, cells stimulated with camptothecin (CPT) were pre-treated with drugs for 2 hours, then incubated with 500 nM CPT for an additional 16 hours in the presence of the following test compounds that were known or suspected to affect the p53 pathway: CPT, genistein, Trichostatin A, MS-275, LY294002, SB203580, HA14-1, or Geldanamycin, at the concentrations indicated in the Legend to FIG. 4. […] Fluorescence resulting from IFP PCA was captured using the Discovery-1automated fluorescence imager (Molecular Devices, Inc.) equipped with a robot arm (CRS Catalyst Express; Thermo Electron Corp., Waltham, Mass.). Images were acquired for YFP fluorescence (excitation filter: 480/40 nm; emission filter 535/50 nm), Hoechst fluorescence (excitation filter: 360/40 nm; emission filter 465/30 nm), and Texas Red fluorescence (excitation filter: 560/50 nm; emission filter 650/40 nm). […]
Automated image analysis was performed using Image J freeware to quantitate the level of fluorescence contributed by the PCA in each image. For the p53:p53 PCA, background contributed by cellular auto-fluorescence was subtracted from each image, then the mean pixel fluorescence intensity was determined within the nucleus of each cell. […] Quantitative values for the unstimulated PCA are shown in mauve, with data from the CPT-stimulated assay shown in blue. […]

Another test has as its system p50/p65 complex. Briefly: stable HEK293T p50/p65 YFP PCA cell line, nuclear translocation (N:C ratio). The class given is cell-based. The note with it: 10 micromolar compound, 25 ng/ml TNF 30 minutes. On the procedure: Stable cell lines represent the gold standard for HTS since the assays can be reconstructed at any time from frozen stocks of cells. […] First, cells were co-transfected with YFP[2]-p65 encoding vectors, and stable cell lines were selected using 100 micrograms/ml of Hygromycin B (Invitrogen). Selected cell lines were then transfected with YFP[1]-p50. Stable cell lines expressing YFP[1]-p50/YFP[2]-p65 were isolated following double antibiotic selection with 50 μg/ml Hygromycin B and 500 μg/ml Zeocin. Cell clones stably expressing the fusion genes were identified by immunoblot analysis and fluorescence microscopy. A single cell line of each transfectant was selected for further characterization. Fluorescence of these lines is stable over at least 25 passages (data not shown). A stable, MEK/ERK cell line—constructed as described below—was used as a control for TNF effects. Fugene 6 (Roche) was used for all the transfections according to manufacturer's directions. Cells stably expressing YFP[1]-p50/YFP[2]-p65 were seeded at 20,000 cells/well in black-walled poly-lysine coated 96 well plate (Greiner). Twenty-four hours later, the cells were incubated with human TNF-alpha (Roche) for 30 min. Nuclei were stained with Hoechst 33342 (Molecular Probes) at 10 micrograms/ml for 10 min. Cells were rinsed with HBSS (Invitrogen) and kept in the same buffer. Fluorescence was visualized and images were acquired using a Discovery-1 automated fluorescence imager (Molecular Devices, Inc.) equipped with excitation and emission filters 470/35 and 535/60, respectively. […] For the high throughput screening campaign described below, cells were pretreated with compounds (10 micromolar) for 60 minutes and then stimulated with TNFalpha for 30 minutes in the presence of drugs. Cells were then fixed with 2% formaldehyde in HBSS and subsequently stained with Hoechst 33342. All liquid handling was done using a Biomek FX (Beckman) instrument and images were acquired as described above. Images were analyzed using Image J. Translocation is assessed by calculating the nuclear/cytoplasmic ratio of the mean fluorescence intensity for a population of cells (denoted as n) over several images for a given condition.
Genesis Plus is a collection of 960 diverse compounds, and includes compounds with known toxicity or fluorescent properties. Inclusion of compounds with such properties is important in HTS assay validation, as they might complicate analysis. The final concentration of compounds in wells was 10 micromolar, and all wells contained 0.5% DMSO concentration. […] Following fixation and staining of nuclei, fluorescence was analyzed on the automated fluorescent microscopy platform (Discovery 1; Universal Imaging/Molecular Devices Corp.). […]

The target in another test is T1, Chk1/p53 interaction (Homo sapiens, UniProt O14757).
T1 construct: expressed in transfected cells; host or cells: HEK293E
T1 sequence (O14757 1-476): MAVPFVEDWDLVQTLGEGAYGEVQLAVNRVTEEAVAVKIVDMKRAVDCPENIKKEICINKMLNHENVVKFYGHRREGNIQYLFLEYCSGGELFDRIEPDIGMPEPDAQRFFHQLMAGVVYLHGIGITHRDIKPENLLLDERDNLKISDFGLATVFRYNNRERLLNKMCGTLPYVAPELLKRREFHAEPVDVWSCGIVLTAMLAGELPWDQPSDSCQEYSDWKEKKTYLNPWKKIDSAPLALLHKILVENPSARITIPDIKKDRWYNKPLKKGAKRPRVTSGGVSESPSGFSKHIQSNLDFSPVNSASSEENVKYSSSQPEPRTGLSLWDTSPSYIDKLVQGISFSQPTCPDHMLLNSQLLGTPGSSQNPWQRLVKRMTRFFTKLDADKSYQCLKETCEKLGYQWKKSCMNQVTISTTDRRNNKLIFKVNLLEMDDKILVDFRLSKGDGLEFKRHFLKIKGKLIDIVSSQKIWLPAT
Briefly: beta-lactamase PCA (BLA PCA) for Chk1/p53 in HEK293E cells. To be noted: HEK293E cells treated with 300 nM camptothecin; 10 micromolar DBH, 50 micromolar Go6976. In kind it is cell-based. On the procedure: For the BLA PCA, the genes of interest—which were known to be involved in DNA damage response pathways—were fused to BLA reporter fragments, and co-transfected in pairs (in 6 replicates) into HEK293E cells. Specifically, interactions between two key proteins, p53 and the checkpoint kinase, Chk1, were evaluated for their response to the DNA damaging agent camptothecin (CPT) and various known drugs or compounds. Full length cDNAs (sequence verified) encoding p53 [NM_000546] and Chk1 [NM_001274] were amplified by PCR and the resulting fragments fused in-frame to the 3′-end of BLA[1] or BLA[2] through a flexible 10 amino acid linker. The resulting BLA[1]-p53, BLA[2]-p53, and BLA[2]-Chk1 constructs contained an EBNA-1 origin for episomal replication in HEK293E cells, but no selectable markers for long term maintenance in cell culture. All constructs were sequenced to confirm the integrity of the reporter-gene fusion prior to use in assays. […] Hydrolysis of the beta-lactam ring by reconstituted BLA releases free coumarin which has a blue fluorescence. […] For each protein pair, the rate of hydrolysis of the substrate was determined immediately after addition of substrate by a kinetic assay on a Molecular Devices Gemini XS plate reader. Accumulated fluorescent substrate was excited at 345 nm and detected at 440 nm every 10 minutes for a 90 minute period. […]

In the case of `CC(/C=C/C(=O)NO)=C\[C@@H](C)C(=O)c1ccc(N(C)C)cc1` [Trichostatin A], in the test with p53/p53 interaction, the “effect on p53/p53 interaction (nuclear mean fluorescence) in the presence of CPT” value is “dramatic increase; also recorded: significantly stimulated”; the “effect on p53/p53 interaction in both assays (absence and presence of CPT)” value is on record as “potentiating effect”.

As to `Cn1c(=O)[nH]c(=O)c2[nH]cnc21` [3-methylxanthine], the “result in Genesis Plus library screen of p50/p65 PCA” value in the test on p50/p65 complex is recorded as “called as hits”.

With `C=C(C)[C@H]1Cc2c(ccc3c2O[C@@H]2COc4cc(OC)c(OC)cc4[C@@H]2C3=O)O1` [rotenone], the “result in Genesis Plus library screen of p50/p65 PCA” value in the test with p50/p65 complex is “called as hits”.

Consider `NC1=N/C(=C2/CCNC(=O)c3[nH]ccc32)C(=O)N1` [DBH], for which, at Chk1/p53 interaction, the “effect on the interaction between Chk1 and p53 (mean rate of hydrolysis of BLA substrate)” value was “significant effects”.

Turning to `Nc1ccccc1NC(=O)c1ccc(CNC(=O)OCc2cccnc2)cc1` [MS-275], the “effect on p53/p53 interaction (nuclear mean fluorescence) in the presence of CPT” value in the test with p53/p53 interaction is listed as “significantly stimulated”.

Take `Cn1c2ccccc2c2c3c(c4c5ccccc5n(CCC#N)c4c21)CNC3=O` [Go6976]: at Chk1/p53 interaction, the “effect on the interaction between Chk1 and p53 (mean rate of hydrolysis of BLA substrate)” value was “significant effects”.

Consider `C[S+]([O-])c1ccc(-c2nc(-c3ccncc3)c(-c3ccc(F)cc3)[nH]2)cc1` (centres unmarked) [SB 203580], for which the “effect on p53/p53 interaction in both assays (absence and presence of CPT)” value in the test with p53/p53 interaction is on record as “increased association”.
